The results in this text go back to patent US9096524B2, “Anthelmintic agents and their use” (Intervet International B.V., priority 2009, dated 2015).

Where two headings read alike, the source gives them in different places.

One test has as its system Haemonchus contortus. Description: Efficacy against Haemonchus contortus in jirds. In kind it is in vivo, jirds (Meriones unguiculatus). Particulars: 72 h, read-out: % Reduction in H.; for inhibition in vivo at 10 mg/kg: jirds, single treatment, larvae burden in stomach 3 days after treatment. The protocol:
Anthelmintic effects of compounds of this invention were tested in vivo using Haemonchus contuortus in jirds (Meriones unguiculatus). The jirds were orally infected with approximately 750-3,000 third-stage larvae of Haemonchus contortus. Ten days after infection, the jirds in the treatment groups were treated once orally or subcutaneously at a dose of 2, 10, and/or 50 mg per kg bodyweight. Three days after treatment, the jirds were necropsied, and the larvae burden in the stomach is determined. The efficacy is defined as the reduction of the mean larvae count in the jirds of the treatment groups in comparison to the infected jirds in the untreated negative control group.

Test [1] deals with A. galli (intestinal roundworm of chicken) larval stage 3; O. dentatum (nodular worm of swine) larval stages 3 and 4. Description: Activity against Ascaridia galli and Oesophagostomum dentatum larvae in vitro (minimum effective concentration). In kind it is cell-based.
[2] abbreviates: read-out: MEC (minimum effective concentration) against one or more of the tested nematodes, in vitro, one or more of A. galli L3, O. dentatum L3, L4, threshold 1 μM.
Where [3] appears, read: read-out: MEC (minimum effective concentration) against one or more of the tested nematodes, in vitro, one or more of A. galli L3, O. dentatum L3, L4, threshold 7 μM.
[4] abbreviates: read-out: MEC (minimum effective concentration) against two or more of the tested nematodes, in vitro, two or more of A. galli L3, O. dentatum L3, L4, threshold 1 μM.

As for `O=C(CCN1CCC(c2ccc(C(F)(F)F)cc2)CC1)N1CCC(Nc2ccc([N+](=O)[O-])c(C(F)(F)F)c2)CC1` [Example 14, 1-[4-(4-nitro-3-trifluoromethyl-phenylamino)-piperidin-1-yl]-3-[4-(4-trifluoromethyl-phenyl)-piperidin-1-yl]-propan-1-one], the inhibition in vivo at 50 mg/kg in the test with Haemonchus contortus (po) is 87%; in the test on Haemonchus contortus (sc), 99%. The values for the minimal effective concentration in test [1] (setting [2]), in test [1] (setting [3]) and in test [1] (setting [4]) were below 1 µM, below 7 µM and below 1 µM, respectively.

Turning to `O=C(CCCN1CCN(c2ccc(C(F)(F)F)cc2)CC1)N1CCC(Nc2ccc(Cl)c(SC(F)(F)F)c2)CC1` [Example 17, 1-[4-(4-chloro-3-trifluoromethylsulfanyl-phenylamino)-piperidin-1-yl]-4-[4-(4-trifluoromethyl-phenyl)-piperazin-1-yl]-butan-1-one], the figures for the inhibition in vivo at 50 mg/kg in the test with Haemonchus contortus (po) and with Haemonchus contortus (sc) were 100% and 96%, respectively. Besides, the minimal effective concentration is below 1 µM in test [1] (setting [2]), below 7 µM in test [1] (setting [3]) and below 1 µM in test [1] (setting [4]).

On to `Cn1nnc(-c2ccc(NC3CCN(C(=O)CCCN4CCN(c5ccc(C(F)(F)F)cc5)CC4)CC3)cc2)n1` [Example 21, 1-{4-[4-(2-methyl-1H-tetrazol-5-yl)-phenylamino]-piperidin-1-yl}-4-[4-(4-trifluoromethyl-phenyl)-piperazin-1-yl]-butan-1-one], for which the inhibition in vivo at 50 mg/kg in the test with Haemonchus contortus (po) was 95%; in the test with Haemonchus contortus (sc), 38%. The minimal effective concentration in test [1] (setting [2]) is below 1 µM; in test [1] (setting [3]), below 7 µM; in test [1] (setting [4]) it was below 1 µM.

On to `O=C(CCN1CCN(c2ccc(OCc3ccccc3)cc2)CC1)N1CCC(Nc2ccc([N+](=O)[O-])c(C(F)(F)F)c2)CC1` [Example 23, 3-[4-(4-benzyloxy-phenyl)-piperazin-1-yl]-1-[4-(4-nitro-3-trifluoromethyl-phenylamino)-piperidin-1-yl]-propan-1-one], for which the results for the inhibition in vivo at 50 mg/kg in the test on Haemonchus contortus (po) and with Haemonchus contortus (sc) were 66% and 92%, respectively. The minimal effective concentration in test [1] (setting [2]) was below 1 µM; in test [1] (setting [3]), below 7 µM; in test [1] (setting [4]), below 1 µM.

For the molecule `CC(C)COc1ccc(N2CCN(CCC(=O)N3CCC(Nc4ccc([N+](=O)[O-])c(C(F)(F)F)c4)CC3)CC2)cc1` [Example 26, 3-[4-(4-isobutoxy-phenyl)-piperazin-1-yl]-1-[4-(4-nitro-3-trifluoromethyl-phenylamino)-piperidin-1-yl]-propan-1-one], the inhibition in vivo at 50 mg/kg is 64% in the test on Haemonchus contortus (po) and 91% with Haemonchus contortus (sc). The values for the minimal effective concentration in test [1] (setting [2]), in test [1] (setting [3]) and in test [1] (setting [4]) were below 1 µM, below 7 µM and below 1 µM, respectively.

Regarding `CS(=O)(=O)c1ccc(NC2CCN(C(=O)CCCN3CCN(c4ccc(C(F)(F)F)cc4)CC3)CC2)cc1C(F)(F)F` [Example 30, 1-[4-(4-methanesulfonyl-3-trifluoromethyl-phenylamino)-piperidin-1-yl]-4-[4-(4-trifluoromethyl-phenyl)-piperazin-1-yl]-butan-1-one], the inhibition in vivo at 50 mg/kg with Haemonchus contortus (po) was found to be 62%; in the test on Haemonchus contortus (sc), 69%. The minimal effective concentration in test [1] (setting [2]) is below 1 µM; in test [1] (setting [3]), below 7 µM; in test [1] (setting [4]), below 1 µM.

For the molecule `O=C(CCCN1CCN(c2ccc(C(F)(F)F)cc2)CC1)N1CCC(Nc2ccc(S(=O)(=O)c3ccc(F)cc3)cc2)CC1` [Example 33, 1-{4-[4-(4-fluoro-benzenesulfonyl)-phenylamino]-piperidin-1-yl}-4-[4-(4-trifluoromethyl-phenyl)-piperazin-1-yl]-butan-1-one], the results for the inhibition in vivo at 50 mg/kg with Haemonchus contortus (po) and with Haemonchus contortus (sc) were 55% and 69%, respectively. For the same molecule, the minimal effective concentration in test [1] (setting [2]) is below 1 µM; in test [1] (setting [3]) it was below 7 µM; in test [1] (setting [4]), below 1 µM.

As to `CC(C)(C)c1ccc(N2CCN(CCC(=O)N3CCC(Nc4ccc([N+](=O)[O-])c(C(F)(F)F)c4)CC3)CC2)cc1` [Example 35, 3-[4-(4-tert-butyl-phenyl)-piperazin-1-yl]-1-[4-(4-nitro-3-trifluoromethyl-phenylamino)-piperidin-1-yl]-propan-1-one], the inhibition in vivo at 50 mg/kg in the test on Haemonchus contortus (po) worked out at 45%; in the test with Haemonchus contortus (sc) it was 93%. Moreover, the values for the minimal effective concentration in test [1] (setting [2]), in test [1] (setting [3]) and in test [1] (setting [4]) were below 1 µM, below 7 µM and below 1 µM, respectively.

Regarding `COc1cc(NC2CCN(C(=O)CCN3CCN(c4ccc(OCc5ccc(C(F)(F)F)cc5)cc4)CC3)CC2)ccc1[N+](=O)[O-]` [Example 40, 1-[4-(3-methoxy-4-nitro-phenylamino)-piperidin-1-yl]-3-{4-[4-(4-trifluoromethyl-benzyloxy)-phenyl]-piperazin-1-yl}-propan-1-one], the inhibition in vivo at 50 mg/kg was 0% in the test with Haemonchus contortus (po) and 74% in the test with Haemonchus contortus (sc). For the same molecule, the minimal effective concentration is below 1 µM in test [1] (setting [2]), below 7 µM in test [1] (setting [3]) and below 1 µM in test [1] (setting [4]).

With `O=C(CCCN1CCN(c2ccc(C(F)(F)F)cc2)CC1)N1CCC(Nc2ccc(C(F)(F)F)cn2)CC1` [Example 51, 4-[4-(4-trifluoromethyl-phenyl)-piperazin-1-yl]-1-[4-(5-trifluoromethyl-pyridin-2-ylamino)-piperidin-1-yl]-butan-1-one], the inhibition in vivo at 50 mg/kg in the test on Haemonchus contortus (po) was 86%; with Haemonchus contortus (sc) it was 63%. Besides, the values for the minimal effective concentration in test [1] (setting [2]), in test [1] (setting [3]) and in test [1] (setting [4]) were below 1 µM, below 7 µM and below 1 µM, respectively.

Turning to `O=C(CCCN1CCN(c2ccc(C(F)(F)F)cc2)CC1)N1CCC(Nc2ccc(OC(F)(F)F)cc2)CC1` [Example 54, 1-[4-(4-trifluoromethoxy-phenylamino)-piperidin-1-yl]-4-[4-(4-trifluoromethyl-phenyl)-piperazin-1-yl]-butan-1-one], the inhibition in vivo at 50 mg/kg in the test with Haemonchus contortus (po) was 95%; in the test on Haemonchus contortus (sc) it was 58%. The minimal effective concentration in test [1] (setting [2]) is below 1 µM; in test [1] (setting [3]), below 7 µM; in test [1] (setting [4]), below 1 µM.

`O=C(CCN1CCC(OCc2ccc(C(F)(F)F)cc2)CC1)N1CCC(Nc2ccc([N+](=O)[O-])c(C(F)(F)F)c2)CC1` [Example 57, 1-[4-(4-nitro-3-trifluoromethyl-phenylamino)-piperidin-1-yl]-3-[4-(4-trifluoromethyl-benzyloxy)-piperidin-1-yl]-propan-1-one]: the inhibition in vivo at 50 mg/kg in the test with Haemonchus contortus (po) was found to be 85%; in the test on Haemonchus contortus (sc), 84%. The minimal effective concentration is below 1 µM in test [1] (setting [2]), below 7 µM in test [1] (setting [3]) and below 1 µM in test [1] (setting [4]).

`CC(CN1CCN(c2ccc(Cl)cc2)CC1)C(=O)N1CCC(Nc2ccc([N+](=O)[O-])c(C(F)(F)F)c2)CC1` (stereo not drawn) [Example 61, 3-[4-(4-chloro-phenyl)-piperazin-1-yl]-2-methyl-1-[4-(4-nitro-3-trifluoromethyl-phenylamino)-piperidin-1-yl]-propan-1-one]: the inhibition in vivo at 50 mg/kg in the test on Haemonchus contortus (po) and with Haemonchus contortus (sc) was 100% in each case. Further, the minimal effective concentration in test [1] (setting [2]) is below 1 µM; in test [1] (setting [3]), below 7 µM; in test [1] (setting [4]) it was below 1 µM.

For the molecule `C[C@@H](CN1CCN(c2ccc(C(F)(F)F)cc2)CC1)C(=O)N1CCC(Nc2ccc([N+](=O)[O-])c(C(F)(F)F)c2)CC1` [Example 68, (S)-2-methyl-1-[4-(4-nitro-3-trifluoromethyl-phenylamino)-piperidin-1-yl]-3-[4-(4-trifluoromethyl-phenyl)-piperazin-1-yl]-propan-1-one], the inhibition in vivo at 10 mg/kg in the test with Haemonchus contortus (oral) came out at 99%; with Haemonchus contortus (sc, subcutaneous) it was 99%. For the same molecule, the minimal effective concentration was below 1 µM in test [1] (in vitro, one or more of A. galli L3, O. dentatum L3, L4, threshold 1 μM, read-out: MEC (minimum effective concentration) against one or more of the tested nematodes); below 7 µM in test [1] (in vitro, one or more of A. galli L3, O. dentatum L3, L4, threshold 7 μM, read-out: MEC (minimum effective concentration) against one or more of the tested nematodes); below 1 µM in test [1] (in vitro, two or more of A. galli L3, O. dentatum L3, L4, threshold 1 μM, read-out: MEC (minimum effective concentration) against two or more of the tested nematodes).

As to `Cc1cc(NC2CCN(C(=O)CCCN3CCN(c4ccc(C(F)(F)F)cc4)CC3)CC2)ncc1[N+](=O)[O-]` [Example 71, 1-[4-(4-methyl-5-nitro-pyridin-2-ylamino)-piperidin-1-yl]-4-[4-(4-trifluoromethyl-phenyl)-piperazin-1-yl]-butan-1-one], the inhibition in vivo at 50 mg/kg in the test on Haemonchus contortus (po) stood at 55%; with Haemonchus contortus (sc), 35%. Moreover, the values for the minimal effective concentration in test [1] (setting [2]), in test [1] (setting [3]) and in test [1] (setting [4]) were below 1 µM, below 7 µM and below 1 µM, respectively.
